# In ChEMBL document CHEMBL4052753, “Antileishmanial potential of fused 5-(pyrazin-2-yl)-4H-1,2,4-triazole-3-thiols: Synthesis, biological evaluations and computational studies” (Bioorg Med Chem Lett, 2017):
# Activity calls are given as the source filed them. The rule behind the calls is not given here.
# Key:
# Leishmania donovani [1] = assay: Antileishmanial activity against Leishmania donovani NHOM/IN/80/DD8 promastigote forms assessed as reduction in parasite growth after 72 hrs by MTT assay; format: functional; details: NHOM/IN/80/DD8, 72 h
# [2] = Antioxidant activity assessed as DPPH free radical scavenging activity after 30 mins; format: functional
# Leishmania donovani [3] = assay: Antileishmanial activity against Leishmania donovani NHOM/IN/80/DD8 promastigote forms assessed as reduction in parasite growth up to 500 uM after 72 hrs by MTT assay; format: functional
# HeLa = assay: Cytotoxicity against human HeLa cells at 500 ug/ml after 72 hrs by MTT assay; format: cell-based
Compound,IC50 [2],IC50 (Leishmania donovani [1]),Activity (Leishmania donovani [3]),Activity (HeLa)
Oc1ccccc1/C=N/n1c(S)nnc1-c1cnccn1,75.9 µM,102 µM,,
Sc1nnc(-c2cnccn2)n1/N=C/c1ccc(Cl)cc1Cl,81.2 µM,241 µM,,
CN(C)c1ccc(/C=N/n2c(S)nnc2-c2cnccn2)cc1,14 µM,113 µM,,
Sc1nnc(-c2cnccn2)n1/N=C/c1ccc(Cl)cc1,39.8 µM,198 µM,,
Oc1ccc2ccccc2c1/C=N/n1c(S)nnc1-c1cnccn1,69.2 µM,178 µM,,
O=[N+]([O-])c1cccc(/C=N/n2c(S)nnc2-c2cnccn2)c1,72.4 µM,347 µM,,
Oc1ccc(/C=N/n2c(S)nnc2-c2cnccn2)c(O)c1,75.9 µM,106 µM,,
Oc1ccc(/C=N/n2c(S)nnc2-c2cnccn2)cc1,58.9 µM,79 µM,,Non-Toxic
N#Cc1ccc(/C=N/n2c(S)nnc2-c2cnccn2)cc1,47.8 µM,99 µM,,
CCOc1ccc(/C=N/n2c(S)nnc2-c2cnccn2)cc1OC,58.8 µM,190 µM,,
Sc1nnc(-c2cnccn2)n1/N=C/c1ccccc1,52.4 µM,95.2 µM,,
Fc1ccc(/C=N/n2c(S)nnc2-c2cnccn2)cc1,58.8 µM,382 µM,,
CCc1ccc(/C=N/n2c(S)nnc2-c2cnccn2)cc1,47.7 µM,201 µM,,
O=C1O[C@H]([C@@H](O)CO)C(O)=C1O [ASCORBIC ACID],14 µM,,,

# Second part, led by results:
IC50 [2],Compound,IC50 (Leishmania donovani [1]),Activity (Leishmania donovani [3]),Activity (HeLa)
58.9 µM,Fc1ccc(NC(=S)Nn2c(S)nnc2-c2cnccn2)c(F)c1,176 µM,,
14 µM,Fc1cccc(NC(=S)Nn2c(S)nnc2-c2cnccn2)c1,287 µM,,
69.2 µM,Fc1ccc(NC(=S)Nn2c(S)nnc2-c2cnccn2)cc1,322 µM,,
58.9 µM,S=C(Nc1ccc(Cl)cc1Cl)Nn1c(S)nnc1-c1cnccn1,79 µM,,
75.9 µM,S=C(Nc1ccc2ccccc2c1)Nn1c(S)nnc1-c1cnccn1,336 µM,,
58.8 µM,S=C(Nc1ccccc1)Nn1c(S)nnc1-c1cnccn1,,inactive,
58.8 µM,FC(F)(F)c1ccc(NC(=S)Nn2c(S)nnc2-c2cnccn2)cc1,289 µM,,
81.2 µM,S=C(Nc1ccc(Cl)c(Cl)c1)Nn1c(S)nnc1-c1cnccn1,229 µM,,
75.9 µM,S=C(Nc1ccc(Cl)cc1)Nn1c(S)nnc1-c1cnccn1,,inactive,
